# Measurements as given in patent publication US8039506B2, “Bicyclic lactam factor VIIa inhibitors useful as anticoagulants” (Bristol-Myers Squibb Company, priority 2006, dated 2011).
# “And” between values parts separate entries of the source, which are not always exact repeats. Identical values can stand only once.
# Biological target: T1, human Factor VIIa (Homo sapiens, UniProt P08709)
# T1 construct: with about 1% of the total amount in the proteolytically active form factor VIIa; purchased Haematologic Technologies (plasma-purified) or Novo Nordisk (recombinant)
# Test: Factor VIIa assay (hydrolysis of chromogenic substrate, Ki)
# Format: biochemical
# Conditions: several values in one cell = repeat determinations
# T1 sequence (P08709 213-466 limits assumed): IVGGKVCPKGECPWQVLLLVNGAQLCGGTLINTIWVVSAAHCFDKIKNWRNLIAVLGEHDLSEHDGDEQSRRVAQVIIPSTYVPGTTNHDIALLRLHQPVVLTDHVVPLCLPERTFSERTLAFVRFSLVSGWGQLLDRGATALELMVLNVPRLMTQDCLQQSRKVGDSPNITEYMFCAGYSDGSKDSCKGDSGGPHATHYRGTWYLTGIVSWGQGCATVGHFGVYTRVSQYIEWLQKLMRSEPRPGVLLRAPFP
# T1 sequence (P08709 61-212 limits assumed): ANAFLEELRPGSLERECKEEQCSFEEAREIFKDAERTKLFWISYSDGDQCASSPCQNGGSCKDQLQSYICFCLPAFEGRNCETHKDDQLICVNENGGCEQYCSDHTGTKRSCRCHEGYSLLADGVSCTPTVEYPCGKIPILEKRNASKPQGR
# T1 sequence (P13726 33-251 partner limits assumed): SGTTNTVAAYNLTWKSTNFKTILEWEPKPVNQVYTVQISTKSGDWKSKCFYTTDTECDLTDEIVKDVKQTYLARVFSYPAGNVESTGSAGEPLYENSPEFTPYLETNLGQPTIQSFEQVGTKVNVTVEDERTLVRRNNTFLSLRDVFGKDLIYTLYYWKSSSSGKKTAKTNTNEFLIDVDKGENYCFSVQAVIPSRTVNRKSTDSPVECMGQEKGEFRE
row,Structure (SMILES),Ki
1,"COC(=O)Nc1ccc(S(=O)(=O)C(C)C)c([C@H]2CCCN2C(=O)C(Nc2ccc(F)c3c2CNC3=O)c2ccc(OC)c(OC)c2)c1 (single isomer, unassigned) [Example 6]",> 13000 nM
2,"CC[C@H]1CNC(=O)c2cc(NC(C(=O)N3CCC[C@@H]3c3cc(NC(=O)OC)ccc3S(=O)(=O)C(C)C)c3ccc(OC)c(OC)c3)ccc21 (single isomer, unassigned) [Example 18]",41 nM and 88 nM
3,"COC(=O)Nc1ccc(S(=O)(=O)C2CC2)c([C@H]2CCCN2C(=O)[C@H](Nc2ccc3nc[nH]c(=O)c3c2)c2ccc(F)c(OC)c2)c1 (single isomer, unassigned) [Example 22]",< 5 nM and 3.5 nM
4,"COc1cc([C@@H](Nc2ccc3c(c2)C(=O)NC3)C(=O)N2CC[C@H](C(=O)O)[C@@H]2c2ccccc2S(=O)(=O)C2CC2)ccc1F [Example 28, (2R,3S)-2-(2-(cyclopropylsulfonyl)phenyl)-1-((R)-2-(4-fluoro-3-methoxyphenyl)-2-(3-oxoisoindolin-5-ylamino)acetyl)pyrrolidine-3-carboxylic acid]",60 nM
